Marks after values point to notes of the source that are not given here.
Tests used:
[1] = 28-day intravenous infusion toxicity study with 14-day recovery; type: in vivo, Sprague-Dawley CD rats; settings: for Testicular germ cell depletion, severity: terminal sacrifice
Method: Sprague-Dawley CD® rats (15/sex/group) were administered 0 (2× Sodium Phosphate Buffer Solution), 1, 4 or 15 mg/kg/dose brincidofovir twice per week via 2-hour intravenous infusion on a total of 9 occasions over 29 days. The dose rate was 10 mL/kg/hr for all dose groups. At the end of the treatment phase, up to 10 animals/sex/group were euthanized and necropsied. The remaining animals (up to 5 animals/sex/group) were held for a 14-day recovery phase in order to determine progression or reversibility of any brincidofovir-related effects. Satellite animals (up to 3/sex/group) were similarly dosed and serial blood samples were collected from each animal on Days 1 and 29 for toxicokinetic analysis of brincidofovir and the brincidofovir metabolite (Cidofovir, CDV). Parameters evaluated during the study were: viability, clinical observations, ophthalmology, body weights, food consumption, clinical pathology (termination of dosing and end of recovery), organ weights, macroscopic observations and microscopic pathology.
The test/control item was administered via 2 hours intravenous infusion twice weekly for a total of 9 individual doses over 29 days. Test/control item administration continued through the day prior to terminal necropsy. Recovery animals were held for a 14 day observation period after the last dose.
Animals in extremely poor health or in a possible moribund condition were identified for further monitoring and possible euthanasia.
Observations were made immediately and 2 hours after the completion of dosing for any signs of poor health or toxic or pharmacologic effects (e.g., abnormalities in general condition, appearance, activity, behavior, respiration, etc.).
Blood obtained via the orbital sinus (retrobulbar venous plexus) under light isoflurane anesthesia was used to analyze hematology, coagulation and clinical chemistry parameters for up to 10 toxicity animals/sex/group at the termination of dosing and up to 5 recovery animals/sex/group at the end of recovery. Animals were fasted overnight prior to each blood collection interval.
Necropsy was performed on up to 10 toxicity study animals/sex/group after animals had been treated for 29 days and on up to 5 toxicity study animals/sex/group after a 14 day treatment-free recovery period. Animals were fasted overnight prior to necropsy. Necropsy schedules were established to ensure that examination of animals of both sexes from each group were performed at similar times of the day throughout the necropsy periods.
Complete macroscopic examinations were performed on all animals. The macroscopic examination included examination of the external surface and all orifices; the external surfaces of the brain and spinal cord; the organs and tissues of the cranial, thoracic, abdominal and pelvic cavities and neck; and the remainder of the carcass for the presence of macroscopic morphologic abnormalities.
The tissues listed below were obtained from all animals and preserved. In addition, slides of the indicated tissues were prepared and examined microscopically. Any abnormalities not noted during macroscopic examinations which were seen during histology processing were recorded.
After fixation, the tissues and organs from all animals were routinely processed, embedded in paraffin, cut at a microtome setting of 4-7 microns, mounted on glass slides, stained with hematoxylin and eosin and examined by light microscopy. The bones were decalcified in Decalcifier II™.

[2] = Stability study I: physical degradation and benchmark stability study; type: physicochemical
Method: Testing of the chemical degradation was performed in an accelerated stability study setup applying heat as an accelerator/stressor. An Arrhenius analysis was carried out providing an API half-life and a degradation rate at lower temperatures. Physical stability was evaluated at the desired storage temperature (2-8° C.); a benchmark/reference condition was likewise included in the study. The setup of the study is specified below:
Physical degradation and benchmark stability study: 2-8° C., 25° C.
Physical degradation and benchmark stability study: initial, 14 and 28 days,
appearance, pH, c(BCV) recovery (HPLC), purity (HPLC), and liquid particle counting (physical degradation and benchmark stability study),
The results of the physical/benchmark stability for both tested formulations are summarized in Table 11 and Table 12, respectively. The purities of the formulations at different temperatures were determined by comparing chromatograms obtained at different temperatures and time points during the study.

[3] = females (2F), 1 mg/kg/dose, 29 day period, 11 tissues examined
[4] = females (3F), 4 mg/kg/dose, 29 day period, 10 tissues examined
[5] = females (4F), 15 mg/kg/dose, 29 day period, 10 tissues examined
[6] = females (4F), 15 mg/kg/dose, following 14-day recovery period, 5 tissues examined
[7] = males (2M), 1 mg/kg/dose, 29 day period, 10 tissues examined
[8] = males (2M), 1 mg/kg/dose, following 14-day recovery period, 5 tissues examined
[9] = males (3M), 4 mg/kg/dose twice weekly, 29 day period, statistically significant
[10] = males (3M), 4 mg/kg/dose, 29 day period, 10 tissues examined
[11] = males (3M), 4 mg/kg/dose, following 14-day recovery period, 5 tissues examined
[12] = males (3M), 4 mg/kg/dose, following 14-day recovery period, statistically significant
[13] = males (4M), 15 mg/kg/dose twice weekly, 29 day period, statistically significant
[14] = males (4M), 15 mg/kg/dose, 29 day period, 10 tissues examined
[15] = males (4M), 15 mg/kg/dose, following 14-day recovery period, 5 tissues examined
[16] = males (4M), 15 mg/kg/dose, following 14-day recovery period, statistically significant

CCCCCCCCCCCCCCCCOCCCOP(=O)(O)CO[C@H](CO)Cn1ccc(N)nc1=O [Brincidofovir]
mortality ([1]; 1, 4 or 15 mg/kg/dose): no brincidofovir-related mortalities
Clinical observations, dosing phase ([1]; 4 and 15 mg/kg/dose, both sexes): intermittent clinical signs
No-observed-adverse-effect level (NOAEL) ([1]; females): 4 mg/kg/dose
Decrease in food consumption vs concurrent controls (to) ([1]; females 15 mg/kg/dose, Week 3): −9.8%
Intestinal tract findings: Total Animals Represented [1, 3]: 0
Skin findings: Total Animals Represented [1, 3]: 0
Bone marrow findings: Total Animals Represented ([1]; females (2F), 1 mg/kg/dose, following 14-day recovery period, 4 tissues examined): 0
Intestinal tract findings: Total Animals Represented [1, 4]: 9
Skin findings: Total Animals Represented [1, 4]: 0
Small intestine: Necrosis, Epithelium, Crypts, Minimal (incidence) [1, 4]: 9
Bone marrow findings: Total Animals Represented ([1]; females (3F), 4 mg/kg/dose, following 14-day recovery period, 5 tissues examined): 0
Intestinal tract findings: Total Animals Represented [1, 5]: 9
Large intestine: Necrosis, Epithelium, glands, Minimal (incidence) [1, 5]: 4
Skin findings: Total Animals Represented [1, 5]: 10
Skin: Atrophy, Sebaceous Glands, Marked (incidence) [1, 5]: 2
Skin: Atrophy, Sebaceous Glands, Moderate (incidence) [1, 5]: 3
Skin: Atrophy, Sebaceous Glands, Slight (incidence) [1, 5]: 5
Small intestine: Hyperplasia, Epithelium, Crypts, Minimal (incidence) [1, 5]: 5
Small intestine: Necrosis, Epithelium, Crypts, Minimal (incidence) [1, 5]: 3
Small intestine: Necrosis, Epithelium, Crypts, Moderate (incidence) [1, 5]: 1
Small intestine: Necrosis, Epithelium, Crypts, Slight (incidence) [1, 5]: 5
Bone marrow findings: Total Animals Represented [1, 6]: 2
Bone marrow: Cellularity, Decreased, Minimal (incidence) [1, 6]: 2
Incidence of bone marrow decreased cellularity after recovery ([1]; females, 15 mg/kg/dose): 2/5
Intestinal tract findings: Total Animals Represented [1, 7]: 0
Male reproductive tract findings: Total Animals Represented [1, 7]: 0
Skin findings: Total Animals Represented [1, 7]: 0
Bone marrow findings: Total Animals Represented [1, 8]: 0
Male reproductive tract findings: Total Animals Represented [1, 8]: 0
Testes weight vs. body weight, % difference relative to controls ([1]; males (3M), 4 mg/kg/dose twice weekly, 29 day period): −3%
Testes absolute weight, % difference relative to controls [1, 9]: −9^a %
Testes weight vs. brain weight, % difference relative to controls [1, 9]: −9^a %
Intestinal tract findings: Total Animals Represented [1, 10]: 9
Male reproductive tract findings: Total Animals Represented [1, 10]: 10
Seminal Vesicles: Apoptosis, Epithelial, Minimal (incidence) [1, 10]: 4
Skin findings: Total Animals Represented [1, 10]: 0
Small intestine: Hyperplasia, Epithelium, Crypts, Minimal (incidence) [1, 10]: 5
Small intestine: Necrosis, Epithelium, Crypts, Minimal (incidence) [1, 10]: 8
Small intestine: Necrosis, Epithelium, Crypts, Slight (incidence) [1, 10]: 1
Testes: Depletion, Germ Cell, Minimal (incidence) [1, 10]: 6
Testes: Depletion, Germ Cell, Slight (incidence) [1, 10]: 3
Bone marrow findings: Total Animals Represented [1, 11]: 0
Male reproductive tract findings: Total Animals Represented [1, 11]: 5
Testes: Depletion, Germ Cell, Minimal (incidence) [1, 11]: 1
Testes: Depletion, Germ Cell, Slight (incidence) [1, 11]: 4
Testes absolute weight, % difference relative to controls [1, 12]: −21^a %
Testes weight vs. body weight, % difference relative to controls [1, 12]: −26^a %
Testes weight vs. brain weight, % difference relative to controls [1, 12]: −18^a %
Epididymides weight vs. body weight, % difference relative to controls ([1]; males (4M), 15 mg/kg/dose twice weekly, 29 day period): −6%
Epididymides absolute weight, % difference relative to controls [1, 13]: −14^a %
Epididymides weight vs. brain weight, % difference relative to controls [1, 13]: −13^a %
Testes absolute weight, % difference relative to controls [1, 13]: −24^a %
Testes weight vs. body weight, % difference relative to controls [1, 13]: −16^a %
Testes weight vs. brain weight, % difference relative to controls [1, 13]: −22^a %
Epididymides: Cell Debris, Luminal, Minimal (incidence) [1, 14]: 9
Intestinal tract findings: Total Animals Represented [1, 14]: 10
Large intestine: Necrosis, Epithelium, glands, Minimal (incidence) [1, 14]: 9
Male reproductive tract findings: Total Animals Represented [1, 14]: 10
Seminal Vesicles: Apoptosis, Epithelial, Minimal (incidence) [1, 14]: 8
Seminal Vesicles: Mitotic Figures, Epithelial, Minimal (incidence) [1, 14]: 4
Skin findings: Total Animals Represented [1, 14]: 10
Skin: Atrophy, Sebaceous Glands, Marked (incidence) [1, 14]: 4
Skin: Atrophy, Sebaceous Glands, Moderate (incidence) [1, 14]: 3
Skin: Atrophy, Sebaceous Glands, Slight (incidence) [1, 14]: 3
Small intestine: Hyperplasia, Epithelium, Crypts, Minimal (incidence) [1, 14]: 2
Small intestine: Necrosis, Epithelium, Crypts, Minimal (incidence) [1, 14]: 2
Small intestine: Necrosis, Epithelium, Crypts, Slight (incidence) [1, 14]: 8
Testes: Depletion, Germ Cell, Moderate (incidence) [1, 14]: 5
Testes: Depletion, Germ Cell, Slight (incidence) [1, 14]: 5
Bone marrow findings: Total Animals Represented [1, 15]: 3
Bone marrow: Cellularity, Decreased, Slight (incidence) [1, 15]: 3
Epididymides: Cell Debris, Luminal, Minimal (incidence) [1, 15]: 5
Epididymides: Sperm, Reduced, Luminal, Marked (incidence) [1, 15]: 4
Epididymides: Sperm, Reduced, Luminal, Severe (incidence) [1, 15]: 1
Male reproductive tract findings: Total Animals Represented [1, 15]: 5
Testes: Depletion, Germ Cell, Marked (incidence) [1, 15]: 4
Testes: Depletion, Germ Cell, Moderate (incidence) [1, 15]: 1
Testes absolute weight, % difference relative to controls [1, 16]: −42^a %
Testes weight vs. body weight, % difference relative to controls [1, 16]: −40^a %
Testes weight vs. brain weight, % difference relative to controls [1, 16]: −41^a %
Sebaceous gland atrophy, severity ([1]; males and females 15 mg/kg/dose): slight to marked
Single cell necrosis of crypt epithelium in small intestine, severity ([1]; males and females ≧4 mg/kg/dose): minimal to moderate
Decrease in food consumption vs concurrent controls (to) ([1]; males ≧1 mg/kg/dose, Week 4): −16%
Testicular germ cell depletion, severity ([1]; males, 4 mg/kg/dose): minimal to slight
Incidence of bone marrow decreased cellularity after recovery ([1]; males, 15 mg/kg/dose): 3/5
Testicular germ cell depletion, severity ([1]; males, 15 mg/kg/dose): slight to moderate
No-observed-adverse-effect level (NOAEL) ([1]; males, twice weekly 2-h IV infusion): 1 mg/kg/dose
Diarrhea ([1]; rat, in vivo): none of the animals in the present study experienced diarrhea
Effects on ophthalmology, body weights, hematology, coagulation, clinical chemistry, urinalysis ([1]; rat, in vivo): no brincidofovir-related effects
Transaminase elevations ([1]; rat, in vivo): No transaminase elevations were observed
Degradation over one month ([2]; 2-8 °C): 6%
Degradation over one month ([2]; 25 °C): 8%
Purity of brincidofovir ([2]; over one month): 99%

Reference: patent publication US20170368082A1, “FORMULATIONS OF BRINCIDOFOVIR” (priority 2016, published 2017)
